Source: US8524701B2, “Use of a specific cyclic amine derivative or the pharmaceutically acceptable salts thereof for the treatment or prevention of heart failure” (Boehringer Ingelheim Pharma GmbH & Co. KG, priority 2002, dated 2013)
Read-outs that look alike come from different tables or passages of the source.

Columns and labels:
[1] = tested on: hyperpolarisation activated, cAMP-modulated cation current channels (HCN) in cardiac conductive tissue; details: cited from earlier work
heart rate [2] = type: in vivo, cat; details: maximum effect, FIG. 1
Text: This selection of the dose is based on the result shown in FIG. 1, wherein the reduction of heart rate is plotted against the applied dose of the drug (open circles: zatebradine; filled circles: cilobradine). […] Therefore, by choosing these doses, it can already be assumed that the pharmacological effect on heart rate of cilobradine is better than the pharmacological effect of zatebradine.

heart rate [3] = type: in vivo; details: rat
Experimental: A further similar experiment was performed in order to compare the visual side-effect of cilobradine and zatebradine in conditions where the drugs are pharmacologically effective in reducing heart rate. The aim of this experiment was to compare the visual side-effect of both drugs in another experimental animal model, namely on the retinal system of the rat. Furthermore, the aim of this experiment was also to compare the visual side-effect of both drugs in acute and in chronic (over two weeks) drug treatment conditions.
The ERG measurements were made 30 minutes after injection of the drug. The measured heart rate frequency was:
The ERG measurement was made 30 minutes after injection of the drug. The measured heart rate frequency was:
(§1) The ERG measurement was made after the 2 weeks treatment.

cat eyes [4] = experiment: Electroretinogram (ERG) response to sinusoidally modulated luminances recorded from cat eyes; type: in vivo
Experimental: The content of these references, and more particularly the experimental parts described therein, are herein incorporated by reference.
These studies were based on a measurement of the electroretinogram (ERG) responses recorded from cat eyes, in normal conditions and after administration of zatebradine.
In the following experiment, the same experiment was performed using cilobradine, and the results compared to the results obtained with zatebradine.

[5] = tested on: retinal system of the rat; experiment: Electroretinogram (ERG) responses from anesthetized pigmented rats as a function of stimulus frequency; type: in vivo; details: for effect on the ERG (visual side-effect): 30 minutes after injection
Text: The aim of this experiment was to compare the visual side-effect of both drugs in another experimental animal model, namely on the retinal system of the rat. Furthermore, the aim of this experiment was also to compare the visual side-effect of both drugs in acute and in chronic (over two weeks) drug treatment conditions.
The principle of this experiment is again the same as the principle of the experiment performed by Gargini et al. and published in Vision research, vol.
The results of the experiment are visualized by plotting the measurement of the first amplitude of the Fourier transform of the ERG as a function of the applied stimulus frequency (oscillating light stimulus of high luminance and contrast).
The ERG measurements were made 30 minutes after injection of the drug.
The ERG measurement was made 30 minutes after injection of the drug.
as §1

[6] = tested on: patients with heart failure; details: Shinke et al. 1997; cited from earlier work
cat eyes [7] = details: cited from earlier work

SMILES	block of HCN channels responsible for the current If [1]	reduction of the heart rate (heart rate [2]; dose of 0.75 mg/kg body weight)	measured heart rate frequency (heart rate [3]; acute treatment 0.3 mg/kg, 30 minutes after injection, control 400, FIG. 4)	measured heart rate frequency (heart rate [3]; acute treatment 1 mg/kg, 30 minutes after injection, control 400, FIG. 4)	measured heart rate frequency (heart rate [3]; acute treatment 3 mg/kg, 30 minutes after injection, control 400, FIG. 4)	measured heart rate frequency (heart rate [3]; chronic treatment 2 weeks, FIG. 7, table row prints 1 mg/kg, text says double dose of 3 mg/kg per day, control 350)	measured heart rate frequency (heart rate [3]; chronic treatment, single dose 1 mg/kg per day during 2 weeks, control 400, FIG. 6)	ERG response (visual side-effect) (cat eyes [4]; after injection of 0.75 mg/kg body weight, FIG. 3)	visual side-effects ([5]; acute as well as chronic (2 weeks) treatment, FIGS. 4 and 6)	effect on the ERG (visual side-effect) ([5]; acute treatment 0.3, 1 and 3 mg/kg, FIG. 4)	cardiac efficiency [6]	reduction of the heart rate (heart rate [2]; dose of 2.5 mg/kg body weight)	measured heart rate frequency (heart rate [3]; acute treatment, single dose 3 mg/kg, 30 minutes after injection, control 428, FIG. 5)	ERG response (visual side-effect) (cat eyes [4]; 15 minutes after 2.5 mg/kg body weight i.v. injection, FIG. 2)	ERG response (visual side-effect) (cat eyes [4]; 5 hours after injection of 2.5 mg/kg body weight, FIG. 2)	ERG response amplitude (cat eyes [7]; after administration of zatebradine, Archives Italiennes de Biologie 1999, Vision Research 1999)	cut-off introduced in the band-pass of the ERG response (cat eyes [7]; after intravenous injection or oral administration, decreased response amplitude in the range 2 to 15 Hertz)	effect on the ERG (visual side-effect) ([5]; acute treatment, single dose 3 mg/kg, FIG. 5)
COc1ccc(CCN2CCC[C@H](CN3CCc4cc(OC)c(OC)cc4CC3=O)C2)cc1OC [cilobradine, (+)-3-[(N-(2-(3,4-dimethoxy-phenyl)-ethyl)-piperidin-3-(S)-yl)-methyl]-7,8-dimethoxy-1,3,4,5-tetrahydro-2H-3-benzazepin-2-one]	selectively block	about 75%	364 beats per min.	316 beats per min.	270 beats per min.	285 beats per min.	260 beats per min.	no visual effect can be detected	without visual side-effects	no effect on the ERG can be detected	–	–	–	–	–	–	–	–
COc1ccc(CCN(C)CCCN2CCc3cc(OC)c(OC)cc3CC2=O)cc1OC [zatebradine]	selectively block	–	–	–	–	–	–	–	–	–	improved cardiac efficiency	about 44%	333 beats per min.	reduces the amplitude of the response to stimuli of frequency above 1 Hz and shift the corresponding phase lags	visual response is back to normal	reduces the amplitude of the response to stimuli of frequency above 1 Hz	about 2 Hertz	a reduction of the amplitude of the response to stimuli of frequency above 1 Hz and a shift of the corresponding phase lags is observed
